Key:
[1] = Tolerability of PAC-1 in the human clinical trial; assay type: in vivo; conditions: patients taking PAC-1 for over 10 months (one at 450 mg daily)
Source text: (§1) It should be noted that cancer drugs can induce secondary cancers, for example, almost ⅓ of patients treated with single-agent vemurafenib develop secondary malignancies; but to date this has not been observed for PAC-1. Just as PAC-1 induces PC-3 cleavage selectively in cancer cells, the resulting caspase-3 activity should lead to selective MLH1 cleavage in cancer cells. It is worth noting that Turcot syndrome, a constitutional mismatch repair deficiency (CMMRD) cancer prone syndrome, is correlated with biallelic germline mutations in MMR genes, resulting in the development of GBM at a young age. Turcot syndrome and other CMMRD syndromes (i.e. Lynch Syndrome) point to the importance of maintaining MMR protein function, implying that inducing MLH1 cleavage/loss in a non-targeted, pan-organism fashion is not a viable therapeutic strategy. However, the strategy with PAC-1 leverages the well-known overexpression of PC-3 in cancer cells (including GBM) resulting in targeted MLH1 cleavage in tumors, leaving MMR proteins in normal cells unperturbed and operating.

GL261 neurospheres = test: Tumor infiltrating lymphocytes (CD3 staining) in orthotopic GL261 syngeneic model; assay type: in vivo, C57BL/6 mice; conditions: single-agent PAC-1 100 mg/kg PO x 10 days
Protocol: (§2) FIG. 4. PAC-1 treatment of mice with syngeneic tumors increases the numbers of tumor infiltrating lymphocytes. A) C57BL/6 mice with orthotopic transplant of GL261 neurospheres. Tumors were allowed to establish for 10 days, then mice (n=3/group) were treated with or without PAC-1 (100 mg/kg PO×10 days), then sacrificed. Tumors were stained for CD3 (brown) to identify T cell TILs. Data presented as average CD3^+ per 4 HPF/mouse. Magnification 100×. B) C57BL/6 mice with subcutaneous transplant of B16F10 cells. Tumors were allowed to establish for 7 days, then mice (n=8/group) were treated with or without PAC-1 (100 mg/kg IP×2×14 days), then sacrificed. Tumors were stained for CD3 (brown) to identify T cell TILs. Data presented as average CD3^+ per 10 HPF/mouse. Magnification 100×.

CT-26_WT cells = test: CT-26_WT subcutaneous tumor model; assay type: in vivo, BALB/c mice; conditions: sc CT-26_WT; PAC-1 100 mg/kg i.p., anti-PD-1 10 mg/kg, 2 or 4 doses; vs vehicle+anti-IgG
Protocol: FIG. 9. Growth of CT-26_WT in BALB/c mice after 2 doses (A) versus 4 doses (B). Open circle=vehicle+anti-IgG2A antibody; square=PAC-1 (100 mg/kg)+anti-IgG2a antibody; triangle=vehicle+anti-PD-1 mAb; inverted triangle=PAC-1 (100 mg/kg)+anti-PD-1 mAb.
FIG. 10. Analysis of treatment of BALB/c mice with PAC-1 and anti-PDL1 mAb. Open circle=vehicle+anti-IgG2A antibody; square=PAC-1 (100 mg/kg)+anti-IgG2a antibody; triangle=vehicle+anti-PD-1 mAb; inverted triangle=PAC-1 (100 mg/kg)+anti-PD-1 mAb.
FIG. 8 illustrates the development of a CT-26_WT subcutaneous disease model in BALB/c mice. At day 0, BALB/c mice were injected subcutaneously with 1×10^6 CT-26_WT cells. At various day intervals, selected mice were injected (i.p.) with an empty vehicle, PAC-1 (100 mg/kg), anti-PD-1 antibody (10 mg/kg; 2 doses), anti-PD-1 antibody (10 mg/kg; 4 doses), or a combination of PAC-1 (100 mg/kg) and anti-PD-1 antibody (10 mg/kg;) as shown in Table 1.

HT-29 cells = test: Western blot for MLH1 and PARP-1 cleavage after PAC-1 treatment of cell lines; assay type: cell-based
Protocol: FIG. 3. PAC-1 treatment leads to MLH1 cleavage in the absence of Apoptotic Death Markers. Cell lines were incubated with indicated concentrations of PAC-1 for 72 hours, followed by western blot analysis for MLH1 protein level, as well as PARP-1, cleaved PARP-1 (c-PARP-1 is an apoptosis maker), and beta-actin (loading control).
Results. MSS/MSI status of colon cancer cell lines have been reported (Ahmed, D., et al., Oncogenesis 2013, 2, e71), allowing for selection of HT-29, an MSS colon cancer cell line. To date, studies that have focused on the cleavage of MLH1 have utilized strategies that broadly induce high levels of apoptotic cell death (i.e., with staurosporine). HT-29 cells were treated with sub-lethal PAC-1.

PMBCs = conditions: cited from earlier work
[2] = tested on: lung tumor microenvironment; test: Immune cell populations in lungs, PBMC and spleen after tumor challenge; assay type: in vivo, BALB/c mice
Source text: FIG. 13. Analysis of neutrophil and macrophage populations after treatment with PAC-1 14 days post-tumor challenge in lungs, PBMC, and spleen. Open circle=vehicle+anti-IgG2A antibody; square=PAC-1+anti-IgG2a antibody; triangle=vehicle+anti-PD-1 mAb; inverted triangle=PAC-1+anti-PD-1 mAb.
FIG. 14. Analysis of T-cells, B-cells, and NK cell populations in the lungs, PBMC, and spleen of BALB/c mice 26 days post combinatorial PAC-1 and anti-PD-1 treatment. Open circle=vehicle+anti-IgG2A antibody; square=PAC-1+anti-IgG2a antibody; triangle=vehicle+anti-PD-1 mAb; inverted triangle=PAC-1+anti-PD-1 mAb.
FIG. 15. PD-L1 expression on the surface of dendritic cells and CD45^− tumor cells 26 days post-tumor challenge in lungs, PBMC, and spleen of BALB/c mice. Open circle=vehicle+anti-IgG2A antibody; square=PAC-1+anti-IgG2a antibody; triangle=vehicle+anti-PD-1 mAb; inverted triangle=PAC-1+anti-PD-1 mAb.

[3] = combination with immune cytokine TRAIL, in culture; cited from earlier work
cancer cells [4] = test: DNA damage in cancer cells; assay type: cell-based
Source text: (§3) Increased immune cell infiltration in PAC-1 treated GL261 tumors. […] 3) PAC-1 is efficacious in in vivo settings with intact immune systems, including syngeneic mouse (EL4, K7M2, GL261) (FIG. 7) and rat (9L) models, and canine cancer patients.

clinical = conditions: human, in vivo, 450 mg
[5] = Myelosuppression in animals and humans, including IND-enabling rat and dog studies; assay type: in vivo, mice, rats, dogs, or humans; conditions: also at very high doses in IND-enabling rat and dog studies
Source text: as §3

cancer cells [6] = test: Transcript profile of cancer cells treated with PAC-1; assay type: cell-based
Source text: as §3

B16F10 cells = test: Tumor infiltrating lymphocytes (CD3 staining) in subcutaneous B16F10 syngeneic model; assay type: in vivo, C57BL/6 mice; conditions: single-agent PAC-1 100 mg/kg IP x2 x14 days
Protocol: as §2

[7] = Secondary malignancies in pet dogs with cancer treated with PAC-1; assay type: in vivo; conditions: pet dogs treated >6 months, >12 months after completion of therapy
Source text: as §1

plasma cytokines = test: Cytokine array of plasma from mice treated with PAC-1; assay type: in vivo, BALB/c mice; conditions: PAC-1 x5 doses, pooled samples from 2-3 mice
Protocol: FIG. 12. A) Example treatment protocol. B) Cytokine array of plasma from BALB/c mice treated with PAC-1.
[…] were centrifuged at 8000 g for 10 mins, and plasma/supt was transferred to new tubes. Cytokine array was performed on 4 groups using pooled samples from 2-3 mice:
Signals were quantified using ImageJ. Data was normalized by calculating the ratio of PAC-1/vehicle mean pixel density as shown in the plot.

[8] = single-agent treatment; cited from earlier work
[9] = HT-29 cells, sub-lethal PAC-1, 72 hours

| SMILES | Ill effects on prolonged dosing [1] | Number of TILs (CD3+ cells) (GL261 neurospheres) | Tumor growth (CT-26_WT cells) | Selectivity of MLH1 cleavage, cancer cell lines vs normal cell line HFF-1 (HT-29 cells; 72 hours) | PARP-1 cleavage (apoptosis marker) (HT-29 cells; [9]) | PC-3 activation and MLH1 cleavage (HT-29 cells; [9]) | Toxicity to PBMCs (PMBCs) | Neutrophils and macrophages in lung tumor microenvironment ([2]; day 14 post-tumor challenge) | Macrophages and dendritic cells in tumor microenvironment ([2]; day 26) | Extrinsic cell death [3] | DNA damage (cancer cells [4]) | Cmax (clinical) [µM] | Myelosuppression [5] | Markers associated with resistance to anti-PD-1 therapy (IPRES) (cancer cells [6]) | Upregulated genes in transcript profile (cancer cells [6]) | Number of TILs (CD3+ cells) (B16F10 cells) | Secondary malignancies [7] | Plasma cytokines (ratio PAC-1/vehicle mean pixel density) (plasma cytokines) | Fraction of patients developing secondary malignancies [8] |
| --- | --- | --- | --- | --- | --- | --- | --- | --- | --- | --- | --- | --- | --- | --- | --- | --- | --- | --- | --- |
| C=CCc1cccc(/C=N/NC(=O)CN2CCN(Cc3ccccc3)CC2)c1O [PAC-1] | no ill effects | increased the number of TILs | large variation in controlling sc CT-26_WT growth | cancer cell specific MLH1 cleavage | little to no PARP-1 cleavage | induced PC-3 activation and MLH1 cleavage | minimal toxicity to PMBCs | appear to increase | have decreased | can enhance extrinsic cell death in culture | causes DNA damage selectively in cancer cells | 7.8 | has not been observed to induce myelosuppression | no upregulation | upregulation of key genes including TNFα, innate immune system agonists IL-1β and IL-8 | increased the number of TILs | remain free of secondary malignancies | increase in cytokines that promote macrophage differentiation as well as B-cell and T-cell proliferation | – |
| CCCS(=O)(=O)Nc1ccc(F)c(C(=O)c2c[nH]c3ncc(-c4ccc(Cl)cc4)cc23)c1F [vemurafenib] | – | – | – | – | – | – | – | – | – | – | – | – | – | – | – | – | – | – | ⅓ |

From US20220226311A1, “PROCASPASE-3 ACTIVATION AND IMMUNOTHERAPY FOR TREATMENT OF CANCER” (The Board of Trustees of the University of Illinois, priority 2019, published 2022)
